Experimental data as given in patent publication US7713969B2, “Compositions and methods for treatment of cancer” (ArQule, Inc., priority 2005, dated 2010).
Like-named read-outs stand apart in the source and are kept apart here.

Assays:
[1] = tested on: MDA-MB-231 human breast cancer xenograft; experiment: MDA-MB-231 xenograft, intraperitoneal 80 mg/kg (Example 82); format: in vivo, mice; settings: 80 mg/kg intraperitoneally, 5 days on/2 off, four cycles, DMA/PEG 400
Description: Athymic female nude mice (CRL:NU/NU-nuBR) were injected subcutaneously in the flank with MDA-MB-231 human breast cancer cells (8×10^6 cells/mouse). Prior to injection, MDA-MB-231 cells were cultured in DMEM (Invitrogen #11965-092) supplemented with 10% (v/v) heat inactivated fetal bovine serum (FBS), 1% Hepes buffer solution (Invitrogen #15630-080) and 1% Penicillin/Streptomycin (Invitrogen #15140-122) at 37° C. in 5% CO2. Tumors were allowed to grow to approximately 50 mm^3 in size. Animals were randomized into three groups of eight animals per group. At day four post injection, mice with established tumors were treated intraperitoneally with (±)-Cis-3-(5,6-dihydro-4H-pyrrolo[3,2,1-ij]quinolin-1yl)-4(1H-indol-3-yl)pyrrolidine-2,5-dione (80 mg/kg), (±)-Trans-3-(5,6-dihydro-4H-pyrrolo[3,2,1-ij]quinolin-1-yl)-4(1H-indol-3-yl)pyrrolidine-2,5-dione (80 mg/kg) administered in DMA/PEG 400 (1:4 v/v) as the vehicle at 50 mg/ml, or vehicle control intraperitoneally. […] Tumor size was evaluated periodically during the study. For each subject, tumor volume was calculated using the formula (L×W^2)/2 where L and W were the length and width of the tumor, respectively. The arithmetic mean tumor volume was calculated for each treatment group+/−standard error of the mean (SEM). […]

DLD-1 = experiment: Colony formation assay (CFA); format: cell-based; settings: Homo sapiens; DLD-1, 24 hours exposure, colonies after 14-21 days; read-out: (−)-trans IC50 CFA
Description: (§1) To determine c-met inhibition, exponentially growing MCF-7 and MDA-MB-231 human breast cancer cells, DLD1 and HT29 human colon cancer cells, PACA2 and PANC-1 human pancreatic cancer cells and NCI-H441 human non-small cell lung cancer cells (H441) were serum starved in 0.5% FBS and treated with increasing amounts of (−)-trans-3-(5,6-dihydro-4H-pyrrolo [3,2,1-ij]quinolin-1-yl)-4(1H-indol-3-yl)pyrrolidine-2,5-dione for 24 hours as indicated. Cells were then left unstimulated or stimulated with 100 ng/mL HGF for 10 minutes and whole cell extracts were prepared. Whole cell lysates (50 μg) were resolved by SDS-PAGE, transferred onto a PVDF membrane, and an enhanced chemiluminescence assay system (ECL) was used to determine the phosphorylation status of c-Met. A polyclonal antibody against phospho (Y1349) c-Met (phospho-c-Met) was obtained from Biosource International and a monoclonal antibody against β-actin was purchased from Invitrogen. Percent inhibition was determined by densitometry using the Scion Image For colony formation assays (CFA), exponentially growing cells were seeded at 2,000 cells per well in 6-well plates and allowed to attach for 24 hours. Increasing concentrations of (−)-trans-3-(5,6-dihydro-4H-pyrrolo[3,2,1-ij]quinolin-1-yl)-4(1H-indol-3-yl)pyrrolidine-2,5-dione (from 0.01 to 30 μM) were then added to the media for another 24 hours. After 24 hours exposure, the drug was removed and fresh media was added for the next 14-21 days, allowing for colony formation. Cells were fixed and stained with GEMSA (Gibco BRL). Colonies of greater than 50 cells were scored as survivors and percentage of cell survival was plotted to determine the IC50. […] The IC50 of (−)-trans-3-(5,6-dihydro-4H-pyrrolo[3,2,1-ij]quinolin-1-yl)-4(1H-indol-3-yl) pyrrolidine-2,5-dione for c-Met expressing solid tumor types is in the 0.1-0.7 μM range following exposure to (−)-trans-3-(5,6-dihydro-4H-pyrrolo[3,2,1-ij]quinolin-1-yl)-4(1H-indol-3-yl)pyrrolidine-2,5-dione for 24 hours, as determined by colony formation assay (CFA).

H441 = experiment: Colony formation assay (CFA); format: cell-based; settings: Homo sapiens, NCI-H441; H441, 24 hours exposure, colonies after 14-21 days; read-out: (−)-trans IC50 CFA
Description: as §1

H446 = experiment: Colony formation assay (CFA); format: cell-based; settings: Homo sapiens, NCI-H446; H446, 24 hours exposure, colonies after 14-21 days; read-out: (−)-trans IC50 CFA
Description: as §1

H661 = experiment: Colony formation assay (CFA); format: cell-based; settings: Homo sapiens, NCI-H661; H661, 24 hours exposure, colonies after 14-21 days; read-out: (−)-trans IC50 CFA
Description: as §1

HT-29 = experiment: Colony formation assay (CFA); format: cell-based; settings: Homo sapiens; HT-29, 24 hours exposure, colonies after 14-21 days; read-out: (−)-trans IC50 CFA
Description: as §1

MCF-7 = experiment: Colony formation assay (CFA); format: cell-based; settings: Homo sapiens, MCF7; MCF-7, 24 hours exposure, colonies after 14-21 days; read-out: (−)-trans IC50 CFA
Description: as §1

MDA-MB-231 = experiment: Colony formation assay (CFA); format: cell-based; settings: Homo sapiens; MDA-MB-231, 24 hours exposure, colonies after 14-21 days; read-out: (−)-trans IC50 CFA
Description: as §1

PACA2 = experiment: Colony formation assay (CFA); format: cell-based; settings: Homo sapiens, PaCa-2; PACA2, 24 hours exposure, colonies after 14-21 days; read-out: (−)-trans IC50 CFA
Description: as §1

PANC-1 = experiment: Colony formation assay (CFA); format: cell-based; settings: Homo sapiens; PANC-1, 24 hours exposure, colonies after 14-21 days; read-out: (−)-trans IC50 CFA
Description: as §1

human tumor cell lines = experiment: Colony formation assay, summary across cell lines; format: cell-based; settings: c-Met expressing solid tumor types, 24 hours exposure, read-out: IC50 for c-Met expressing solid tumor types (CFA)
Description: To determine c-met inhibition, exponentially growing MCF-7 and MDA-MB-231 human breast cancer cells, DLD1 and HT29 human colon cancer cells, PACA2 and PANC-1 human pancreatic cancer cells and NCI-H441 human non-small cell lung cancer cells (H441) were serum starved in 0.5% FBS and treated with increasing amounts of (−)-trans-3-(5,6-dihydro-4H-pyrrolo [3,2,1-ij]quinolin-1-yl)-4(1H-indol-3-yl)pyrrolidine-2,5-dione for 24 hours as indicated. Cells were then left unstimulated or stimulated with 100 ng/mL HGF for 10 minutes and whole cell extracts were prepared. […] Percent inhibition was determined by densitometry using the Scion Image For colony formation assays (CFA), exponentially growing cells were seeded at 2,000 cells per well in 6-well plates and allowed to attach for 24 hours. […] Colonies of greater than 50 cells were scored as survivors and percentage of cell survival was plotted to determine the IC50. […] The IC50 of (−)-trans-3-(5,6-dihydro-4H-pyrrolo[3,2,1-ij]quinolin-1-yl)-4(1H-indol-3-yl) pyrrolidine-2,5-dione for c-Met expressing solid tumor types is in the 0.1-0.7 μM range following exposure to (−)-trans-3-(5,6-dihydro-4H-pyrrolo[3,2,1-ij]quinolin-1-yl)-4(1H-indol-3-yl)pyrrolidine-2,5-dione for 24 hours, as determined by colony formation assay (CFA).

c-Met = c-Met (Homo sapiens, UniProt P08581); experiment: c-Met inhibition, phospho-c-Met blot with densitometry (Example 83); format: cell-based; parameters: whole cell extracts were prepared; endogenous in cells; host or cells: MCF-7, MDA-MB-231, DLD1, HT29, PACA2, PANC-1, NCI-H441; settings: 24 hours treatment, read-out: (−)-trans IC50 c-Met Inhibition
Description: as §1

Chain of c-Met (P08581 25-1390): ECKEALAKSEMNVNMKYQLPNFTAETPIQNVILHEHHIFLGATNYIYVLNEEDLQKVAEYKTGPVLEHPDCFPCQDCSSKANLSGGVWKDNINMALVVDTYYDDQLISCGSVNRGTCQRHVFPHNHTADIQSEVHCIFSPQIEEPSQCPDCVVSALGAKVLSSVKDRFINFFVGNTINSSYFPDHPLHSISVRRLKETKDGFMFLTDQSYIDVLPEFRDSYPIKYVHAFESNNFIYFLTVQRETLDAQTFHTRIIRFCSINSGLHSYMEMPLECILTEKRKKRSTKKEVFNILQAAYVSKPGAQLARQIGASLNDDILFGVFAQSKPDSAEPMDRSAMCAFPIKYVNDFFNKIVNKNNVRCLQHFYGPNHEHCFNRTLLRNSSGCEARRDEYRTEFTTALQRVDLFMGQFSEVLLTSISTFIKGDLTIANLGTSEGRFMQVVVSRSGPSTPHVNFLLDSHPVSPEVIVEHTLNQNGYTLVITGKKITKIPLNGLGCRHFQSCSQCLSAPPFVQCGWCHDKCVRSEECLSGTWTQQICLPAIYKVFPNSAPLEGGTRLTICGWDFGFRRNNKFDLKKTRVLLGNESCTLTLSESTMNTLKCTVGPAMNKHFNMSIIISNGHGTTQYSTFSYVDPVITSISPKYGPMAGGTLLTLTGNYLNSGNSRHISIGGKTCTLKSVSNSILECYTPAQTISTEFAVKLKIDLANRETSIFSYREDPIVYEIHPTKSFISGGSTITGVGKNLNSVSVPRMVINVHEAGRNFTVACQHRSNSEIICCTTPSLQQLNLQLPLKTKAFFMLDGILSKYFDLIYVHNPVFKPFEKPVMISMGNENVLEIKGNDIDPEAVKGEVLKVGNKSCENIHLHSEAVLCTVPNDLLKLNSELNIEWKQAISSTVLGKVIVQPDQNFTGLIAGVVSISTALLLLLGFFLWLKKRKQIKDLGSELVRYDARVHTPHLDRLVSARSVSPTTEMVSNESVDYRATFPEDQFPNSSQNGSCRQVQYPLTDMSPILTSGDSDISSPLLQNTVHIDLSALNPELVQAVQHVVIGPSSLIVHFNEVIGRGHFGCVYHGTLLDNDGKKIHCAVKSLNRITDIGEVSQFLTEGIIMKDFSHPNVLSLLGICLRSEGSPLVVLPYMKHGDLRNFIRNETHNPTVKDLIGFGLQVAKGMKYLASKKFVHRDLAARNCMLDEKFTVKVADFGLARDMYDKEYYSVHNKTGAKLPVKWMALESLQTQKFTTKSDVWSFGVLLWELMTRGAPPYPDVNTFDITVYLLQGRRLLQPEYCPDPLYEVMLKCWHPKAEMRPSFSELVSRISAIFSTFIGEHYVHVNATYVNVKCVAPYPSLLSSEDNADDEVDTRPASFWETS

Row | IC50 (DLD-1) [nM] | IC50 (H441) [nM] | IC50 (H446) [nM] | IC50 (H661) [nM] | IC50 (HT-29) [nM] | IC50 (MCF-7) [nM] | IC50 (MDA-MB-231) [nM] | IC50 (PACA2) [nM] | IC50 (PANC-1) [nM] | IC50 (human tumor cell lines) [nM] | IC50 (c-Met; DLD-1 cells) [nM] | IC50 (c-Met; H441 cells) [nM] | IC50 (c-Met; HT-29 cells) [nM] | IC50 (c-Met; MCF-7 cells) [nM] | IC50 (c-Met; MDA-MB-231 cells) [nM] | IC50 (c-Met; PACA2 cells) [nM] | IC50 (c-Met; PANC-1 cells) [nM] | SMILES | reduction of mean tumor volume compared to vehicle treated control [1] [%]
1 |  |  |  |  |  |  |  |  |  |  |  |  |  |  |  |  |  | O=C1NC(=O)[C@@H](c2cn3c4c(cccc24)CCC3)[C@@H]1c1c[nH]c2ccccc12 (racemic) [(±)-Trans-3-(5,6-dihydro-4H-pyrrolo[3,2,1-ij]quinolin-1-yl)-4(1H-indol-3-yl)pyrrolidine-2,5-dione] | 69.4
2 | 700 | 200 | 4000 | 5000 | 200 | 400 | 300 | 300 | 500 | 100 to 700 | 3000 | 100 | 300 | 100 | 100 | 100 | 500 | O=C1NC(=O)C(c2cn3c4c(cccc24)CCC3)C1c1c[nH]c2ccccc12 (single isomer, unassigned; (-)) | 
